{"source": "patent US20090325803A1", "about": "“CONTROL OF AQUATIC WEEDS USING SELECTED HERBICIDAL COMBINATIONS WITH A SYNTHETIC AUXIN” (priority 2008, published 2009)", "format_in_all_cases": "in vivo", "key": {"[1]": {"tested_on": "Eurasian watermilfoil (EWM)", "assay": "Root and shoot dry weights of Eurasian watermilfoil after treatment with triclopyr, 2,4-d, diquat alone and in combination, harvest at 32 d (Example 3)", "conditions": "single herbicide at 50 ppb, vs untreated controls", "from_the_text": "Apical sections (12 to 15 cm in length) of Eurasian watermilfoil (EWM) were planted into small pots (13.5 cm length×3.75 cm diameter) containing Wallace Farm® (topsoil amended with 14-14-14 slow release Osmocote® fertilizer (˜2.5 g Osmocote/kg soil). Approximately 5 to 7 cm of the apical section extended above the sediment at planting, and a sand cap was placed over the potting soil (˜2 cm deep). Plants were then transferred to a 12 L acrylic tanks filled with well water. Plants were allowed to grow to two-thirds the height of tanks (approximately 7 d) before the following treatment was initiated in triple replicate: 1) Untreated controls, 2) triclopyr 50 ppb, 3) 2,4-d 50 ppb, 4) diquat 50 ppb, 5) diquat 50 ppb+triclopyr 50 ppb, 6) diquat 50 ppb+2,4-d 50 ppb. Plants were harvested at 32 d. At harvest, plants were rinsed free of algae, roots and shoots were separated, and placed in paper sacks in a drying oven for 4 d at 70° C. temperature, and dry weights were determined (FIG. 3.1)."}, "[2]": {"tested_on": "Eurasian watermilfoil (EWM)", "assay": "GR50 and Isobole analysis of triclopyr and 2,4-d alone and in combination, above ground biomass 33 days after treatment (Example 4)", "conditions": "total herbicide concentration, regression of 30-120 ppb treatments, n=3", "from_the_text": "Eurasian watermilfoil (EWM) was collected from ponds in Seymour, Ind. Single apical meristems were planted into small pots (13.5 cm length×3.75 cm diameter) containing Wallace Farm® (topsoil amended with 14-14-14 slow release Osmocote® fertilizer (˜2.5 g Osmocote/kg soil). Approximately 5 to 7 cm of the apical section extended above the sediment at planting, and a sand cap was placed over the potting soil (˜2 cm deep). Plants were then transferred to a 12 L acrylic tanks filled with well water. Tanks were maintained in a growth room with 14:10 h photoperiod at 26° C. Plants were allowed to establish growth for 26 days before they were treated.\nPretreatment above ground biomass was harvested the day of the treatment and dry weights were determined. Treatments were replicated three times in a completely randomized design. […]\nAll above ground biomass was harvested 33 days after treatment. Biomass was dried to constant moisture at 70° C. for 3 d, and dry weights were determined. Data were subjected to regression analysis using Sigma Plot software, and a GR50 was determined (concentration causing a 50% reduction in dry weight) for each treatment. […]"}, "[3]": {"tested_on": "Eurasian watermilfoil (EWM)", "assay": "Root and shoot dry weights of Eurasian watermilfoil after 40 d exposure to triclopyr and fluridone, 12 L tanks (Example 2)", "conditions": "triclopyr 75 ppb alone", "from_the_text": "Apical sections (12 to 15 cm in length) of Eurasian watennilfoil (EWM) were planted into small pots (13.5 cm length×3.75 cm diameter) containing Wallace Farm® topsoil amended with 14-14-14 slow release Osmocote® fertilizer (˜2.5 g Osmocote/kg soil). Approximately 5 to 7 cm of the apical section extended above the sediment at planting, and a sand cap was placed over the potting soil (˜2 cm deep). Plants were then transferred to a 12 L acrylic tanks filled with well water. Plants were allowed to grow for 7 d before the following treatments were initiated in triple replicate: 1) fluridone at 10 ppb, 2) triclopyr at 75 ppb, 3) fluridone (10 ppb) plus triclopyr (75 ppb), 4) untreated controls. Plants were harvested at 40 d. At harvest, plants were rinsed free of algae, roots and shoots were separated, and placed in paper sacks in a drying oven for 4 d at 70° C. temperature, and dry weights were determined (FIG. 2.1)."}}}
{"smiles": "O=C(O)COc1ccc(Cl)cc1Cl", "note": "[2,4-d, (2,4-dichlorophenoxy) acetic acid]", "values": [{"measurement": "reduction in root biomass", "setting": "[1]", "value": 66, "unit": "%"}, {"measurement": "GR50 (concentration causing a 50% reduction in dry weight)", "setting": "[2]", "value": 162.6, "unit": "ppb"}]}
{"smiles": "c1cc[n+]2c(c1)-c1cccc[n+]1CC2", "note": "[diquat, 1,1′-ethylene 2,2′-dipyridylium dibromide]", "values": [{"measurement": "reduction in root biomass", "setting": "[1]", "value": 86, "unit": "%"}]}
{"smiles": "O=C(O)COc1nc(Cl)c(Cl)cc1Cl", "note": "[triclopyr, 3,5,6-trichloro-2-pyridyloxyacetic acid]", "values": [{"measurement": "reduction in root biomass", "setting": "[1]", "value": 90, "unit": "%"}, {"measurement": "GR50 (concentration causing a 50% reduction in dry weight)", "setting": "[2]", "value": 63.0, "unit": "ppb"}, {"measurement": "reduction of below ground biomass", "setting": "[3]; root dry weight", "value": 74, "unit": "%"}, {"measurement": "reduction of above ground biomass", "setting": "[3]; shoot dry weight", "value": 96, "unit": "%"}]}
